Tests used:
Assay in all cases: Weeding effect in post-emergence stage
Assay type in all cases: in vivo
Details in all cases: fresh weight control rate level
Abutilon theophrasti = tested on: Abutilon theophrasti
How it was run: (§1)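 Doses of 500, 250, 125, 60, 30, 15 and 7.5 g/ha, with methyl oleate synergist (1.5 liter/ha) and Tween 80 from acetone solution, applied by spray tower post-emergence (2–3 leaf stage). Weed control scored after 3 further greenhouse weeks, averaged over triplicates.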

Alopecurus japonicus = tested on: Alopecurus japonicus
How it was run: as §1

Digitaria sanguinalis = tested on: Digitaria sanguinalis
How it was run: as §1

Eleusine indica = tested on: Eleusine indica
How it was run: as §1

Setaria viridis = tested on: Setaria viridis
How it was run: as §1

Echinochloa crusgalli = tested on: Echinochloa crusgalli
How it was run: as §1

SMILES	Weeding effect in post-emergence stage, Abutilon theophrasti (level) (Abutilon theophrasti; Dose 15 g/ha)	Weeding effect in post-emergence stage, Alopecurus japonicus (level) (Alopecurus japonicus; Dose 15 g/ha)	Weeding effect in post-emergence stage, Digitaria sanguinalis (level) (Digitaria sanguinalis; Dose 15 g/ha)	Weeding effect in post-emergence stage, Eleusine indica (level) (Eleusine indica; Dose 15 g/ha)	Weeding effect in post-emergence stage, Setaria viridis (level) (Setaria viridis; Dose 15 g/ha)	Weeding effect in post-emergence stage, Echinochloa crusgalli (level) (Echinochloa crusgalli; Dose 15 g/ha)	further results
Cc1cc(C)n(C(=O)[C@@H](C)O/N=C/c2cc(-n3c(=O)cc(C(F)(F)F)n(C)c3=O)c(F)cc2Cl)n1 [424(R)]	–	–	–	–	–	–	Weeding effect in post-emergence stage, Abutilon theophrasti (level) (Abutilon theophrasti; Dose 30 g/ha): 5 (Level 5: growth control rate is above 85%); Weeding effect in post-emergence stage, Alopecurus japonicus (level) (Alopecurus japonicus; Dose 30 g/ha): 5 (Level 5: growth control rate is above 85%); Weeding effect in post-emergence stage, Digitaria sanguinalis (level) (Digitaria sanguinalis; Dose 30 g/ha): 5 (Level 5: growth control rate is above 85%); Weeding effect in post-emergence stage, Eleusine indica (level) (Eleusine indica; Dose 30 g/ha): 5 (Level 5: growth control rate is above 85%); Weeding effect in post-emergence stage, Setaria viridis (level) (Setaria viridis; Dose 30 g/ha): 5 (Level 5: growth control rate is above 85%); Weeding effect in post-emergence stage, Echinochloa crusgalli (level) (Echinochloa crusgalli; Dose 30 g/ha): 5 (Level 5: growth control rate is above 85%)
CCn1c(C(F)(F)F)cc(=O)n(-c2cc(/C=N/O[C@H](C)C(=O)OC)c(Cl)cc2F)c1=O [426(R)]	–	–	–	–	–	–	Weeding effect in post-emergence stage, Abutilon theophrasti (level) (Abutilon theophrasti; Dose 250 g/ha): 5 (Level 5: growth control rate is above 85%); Weeding effect in post-emergence stage, Alopecurus japonicus (level) (Alopecurus japonicus; Dose 250 g/ha): 5 (Level 5: growth control rate is above 85%); Weeding effect in post-emergence stage, Digitaria sanguinalis (level) (Digitaria sanguinalis; Dose 250 g/ha): 5 (Level 5: growth control rate is above 85%); Weeding effect in post-emergence stage, Eleusine indica (level) (Eleusine indica; Dose 250 g/ha): 5 (Level 5: growth control rate is above 85%); Weeding effect in post-emergence stage, Setaria viridis (level) (Setaria viridis; Dose 250 g/ha): 5 (Level 5: growth control rate is above 85%); Weeding effect in post-emergence stage, Echinochloa crusgalli (level) (Echinochloa crusgalli; Dose 250 g/ha): 5 (Level 5: growth control rate is above 85%)
C[C@@H](O/N=C/c1cc(-n2c(=O)n(C)c(=S)n(C)c2=O)c(F)cc1Cl)C(=O)O [438(R)]	–	–	–	–	–	–	Weeding effect in post-emergence stage, Abutilon theophrasti (level) (Abutilon theophrasti; Dose 30 g/ha): 5 (Level 5: growth control rate is above 85%); Weeding effect in post-emergence stage, Alopecurus japonicus (level) (Alopecurus japonicus; Dose 30 g/ha): 5 (Level 5: growth control rate is above 85%); Weeding effect in post-emergence stage, Digitaria sanguinalis (level) (Digitaria sanguinalis; Dose 30 g/ha): 5 (Level 5: growth control rate is above 85%); Weeding effect in post-emergence stage, Eleusine indica (level) (Eleusine indica; Dose 30 g/ha): 5 (Level 5: growth control rate is above 85%); Weeding effect in post-emergence stage, Setaria viridis (level) (Setaria viridis; Dose 30 g/ha): 5 (Level 5: growth control rate is above 85%); Weeding effect in post-emergence stage, Echinochloa crusgalli (level) (Echinochloa crusgalli; Dose 30 g/ha): 5 (Level 5: growth control rate is above 85%)
C[C@@H](O/N=C/c1cc(-n2c(=O)n(C)c(=S)n(C)c2=O)c(F)cc1Cl)C(=O)OCC(F)(F)F [439(R)]	–	–	–	–	–	–	Weeding effect in post-emergence stage, Abutilon theophrasti (level) (Abutilon theophrasti; Dose 30 g/ha): 5 (Level 5: growth control rate is above 85%); Weeding effect in post-emergence stage, Alopecurus japonicus (level) (Alopecurus japonicus; Dose 30 g/ha): 5 (Level 5: growth control rate is above 85%); Weeding effect in post-emergence stage, Digitaria sanguinalis (level) (Digitaria sanguinalis; Dose 30 g/ha): 5 (Level 5: growth control rate is above 85%); Weeding effect in post-emergence stage, Eleusine indica (level) (Eleusine indica; Dose 30 g/ha): 5 (Level 5: growth control rate is above 85%); Weeding effect in post-emergence stage, Setaria viridis (level) (Setaria viridis; Dose 30 g/ha): 5 (Level 5: growth control rate is above 85%); Weeding effect in post-emergence stage, Echinochloa crusgalli (level) (Echinochloa crusgalli; Dose 30 g/ha): 5 (Level 5: growth control rate is above 85%)
C#CCCOC(=O)[C@@H](C)O/N=C/c1cc(-n2c(=O)cc(C(F)(F)F)n(C)c2=O)c(F)cc1Cl [442(R)]	5 (Level 5: growth control rate is above 85%)	5 (Level 5: growth control rate is above 85%)	5 (Level 5: growth control rate is above 85%)	5 (Level 5: growth control rate is above 85%)	5 (Level 5: growth control rate is above 85%)	5 (Level 5: growth control rate is above 85%)	–
CC(C#N)OC(=O)[C@@H](C)O/N=C/c1cc(-n2c(=O)cc(C(F)(F)F)n(C)c2=O)c(F)cc1Cl (stereo partly drawn) [443(R)]	5 (Level 5: growth control rate is above 85%)	5 (Level 5: growth control rate is above 85%)	5 (Level 5: growth control rate is above 85%)	5 (Level 5: growth control rate is above 85%)	5 (Level 5: growth control rate is above 85%)	5 (Level 5: growth control rate is above 85%)	–
CC(CC#N)OC(=O)[C@@H](C)O/N=C/c1cc(-n2c(=O)cc(C(F)(F)F)n(C)c2=O)c(F)cc1Cl (stereo partly drawn) [444(R)]	5 (Level 5: growth control rate is above 85%)	5 (Level 5: growth control rate is above 85%)	5 (Level 5: growth control rate is above 85%)	5 (Level 5: growth control rate is above 85%)	5 (Level 5: growth control rate is above 85%)	5 (Level 5: growth control rate is above 85%)	–
CC(C#N)COC(=O)[C@@H](C)O/N=C/c1cc(-n2c(=O)cc(C(F)(F)F)n(C)c2=O)c(F)cc1Cl (stereo partly drawn) [445(R)]	5 (Level 5: growth control rate is above 85%)	5 (Level 5: growth control rate is above 85%)	5 (Level 5: growth control rate is above 85%)	5 (Level 5: growth control rate is above 85%)	5 (Level 5: growth control rate is above 85%)	5 (Level 5: growth control rate is above 85%)	–
C[C@@H](O/N=C/c1cc(-n2c(=O)cc(C(F)(F)F)n(C)c2=O)c(F)cc1Cl)C(=O)OCCCC#N [446(R)]	5 (Level 5: growth control rate is above 85%)	5 (Level 5: growth control rate is above 85%)	5 (Level 5: growth control rate is above 85%)	5 (Level 5: growth control rate is above 85%)	5 (Level 5: growth control rate is above 85%)	5 (Level 5: growth control rate is above 85%)	–
C[C@@H](O/N=C/c1cc(-n2c(=O)cc(C(F)(F)F)n(C)c2=O)c(F)cc1Cl)C(=O)OCC1(C#N)CC1 [447(R)]	5 (Level 5: growth control rate is above 85%)	5 (Level 5: growth control rate is above 85%)	5 (Level 5: growth control rate is above 85%)	5 (Level 5: growth control rate is above 85%)	5 (Level 5: growth control rate is above 85%)	5 (Level 5: growth control rate is above 85%)	–
C[C@@H](O/N=C/c1cc(-n2c(=O)cc(C(F)(F)F)n(C)c2=O)c(F)cc1Cl)C(=O)OCCN(C)C [448(R)]	5 (Level 5: growth control rate is above 85%)	5 (Level 5: growth control rate is above 85%)	5 (Level 5: growth control rate is above 85%)	5 (Level 5: growth control rate is above 85%)	5 (Level 5: growth control rate is above 85%)	5 (Level 5: growth control rate is above 85%)	–
C/C(=N\OC(=O)[C@@H](C)O/N=C/c1cc(-n2c(=O)cc(C(F)(F)F)n(C)c2=O)c(F)cc1Cl)C(C)(C)C [449(R)]	5 (Level 5: growth control rate is above 85%)	5 (Level 5: growth control rate is above 85%)	5 (Level 5: growth control rate is above 85%)	5 (Level 5: growth control rate is above 85%)	5 (Level 5: growth control rate is above 85%)	5 (Level 5: growth control rate is above 85%)	–
C/C(=N\OC(=O)[C@@H](C)O/N=C/c1cc(-n2c(=O)cc(C(F)(F)F)n(C)c2=O)c(F)cc1Cl)C1CC1 [450(R)]	5 (Level 5: growth control rate is above 85%)	5 (Level 5: growth control rate is above 85%)	5 (Level 5: growth control rate is above 85%)	5 (Level 5: growth control rate is above 85%)	5 (Level 5: growth control rate is above 85%)	5 (Level 5: growth control rate is above 85%)	–
C/C(=N/C(=O)[C@@H](C)O/N=C/c1cc(-n2c(=O)cc(C(F)(F)F)n(C)c2=O)c(F)cc1Cl)c1ccccc1 [453(R)]	–	–	–	–	–	–	Weeding effect in post-emergence stage, Abutilon theophrasti (level) (Abutilon theophrasti; Dose 30 g/ha): 5 (Level 5: growth control rate is above 85%); Weeding effect in post-emergence stage, Alopecurus japonicus (level) (Alopecurus japonicus; Dose 30 g/ha): 5 (Level 5: growth control rate is above 85%); Weeding effect in post-emergence stage, Digitaria sanguinalis (level) (Digitaria sanguinalis; Dose 30 g/ha): 5 (Level 5: growth control rate is above 85%); Weeding effect in post-emergence stage, Eleusine indica (level) (Eleusine indica; Dose 30 g/ha): 5 (Level 5: growth control rate is above 85%); Weeding effect in post-emergence stage, Setaria viridis (level) (Setaria viridis; Dose 30 g/ha): 5 (Level 5: growth control rate is above 85%); Weeding effect in post-emergence stage, Echinochloa crusgalli (level) (Echinochloa crusgalli; Dose 30 g/ha): 5 (Level 5: growth control rate is above 85%)
C[C@@H](O/N=C/c1cc(-n2c(=O)cc(C(F)(F)F)n(C)c2=O)c(F)cc1Cl)C(=O)N1CCOCC1 [454(R)]	–	–	–	–	–	–	Weeding effect in post-emergence stage, Abutilon theophrasti (level) (Abutilon theophrasti; Dose 60 g/ha): 5 (Level 5: growth control rate is above 85%); Weeding effect in post-emergence stage, Alopecurus japonicus (level) (Alopecurus japonicus; Dose 60 g/ha): 5 (Level 5: growth control rate is above 85%); Weeding effect in post-emergence stage, Digitaria sanguinalis (level) (Digitaria sanguinalis; Dose 60 g/ha): 5 (Level 5: growth control rate is above 85%); Weeding effect in post-emergence stage, Eleusine indica (level) (Eleusine indica; Dose 60 g/ha): 5 (Level 5: growth control rate is above 85%); Weeding effect in post-emergence stage, Setaria viridis (level) (Setaria viridis; Dose 60 g/ha): 5 (Level 5: growth control rate is above 85%); Weeding effect in post-emergence stage, Echinochloa crusgalli (level) (Echinochloa crusgalli; Dose 60 g/ha): 5 (Level 5: growth control rate is above 85%)

Reference: patent US20230111310A1, “CARBOXYLIC ACID DERIVATIVE-SUBSTITUTED IMINO ARYL COMPOUND, PREPARATION METHOD THEREFOR, HERBICIDAL COMPOSITION AND USE THEREOF” (Qingdao Kingagroot Chemical Compound Co., Ltd., priority 2020, published 2023)
